Assay results published in publication PMC8264504, “Identification of Koumine as a Translocator Protein 18 kDa Positive Allosteric Modulator for the Treatment of Inflammatory and Neuropathic Pain” (Frontiers in Pharmacology, 2021).
Read-outs that look alike come from different tables or passages of the source.

Tests used:
[1] = molecular target: T1, mouse TSPO recombinant protein (TSPO proteoliposomes) (Mus musculus, UniProt P50637); test: SPR single-cycle kinetics on TSPO proteoliposomes; assay type: binding
T1 construct: His tag; made in house; host or cells: Escherichia coli BL21(DE3) pLysS, pET15b vector
Procedure: Cells of the BL21(DE3) pLysS Escherichia coli strain were transformed with the pET15b vector, from which the expression of mouse TSPO recombinant protein was induced by 1 mM isopropyl-1-thiol-β-D-galactopyranoside as previously described ([Robert and Lacapère, 2010]; [Senicourt et al., 2017]). Cells were harvested and resuspended in lysis buffer (150 mM NaCl and 50 mM HEPES-Na, pH 7.8) with the addition of 1 mg/ml lysozyme and sonicated thoroughly. The lysate was centrifuged at 15,000 g at 4°C for 20 min to pellet the insoluble inclusion bodies. The final pellet of inclusion bodies was solubilized in binding buffer (150 mM NaCl, 50 mM HEPES-Na, 1% SDS (wt/vol), pH 7.8) and was purified by the Ni-NTA gravity flow column.
Proteoliposomes composed of DMPC/DMPE (9:1) and TSPO in a 5:1 (wt/wt) ratio were prepared using a previously described method ([Ostuni et al., 2010]). Liposomes composed of DMPC/DMPE (9:1) were prepared as published previously ([Hatty et al., 2014]). A few milligrams of DMPC and DMPE were weighed into a round-bottom glass flask, and chloroform and methanol were added to dissolve them. A thin lipid film was prepared by a rotary evaporator and dried under vacuum for at least 3 h to remove all traces of chloroform and methanol. The dry lipid film was resuspended in PBS buffer (10 mM phosphate buffer, 2.7 mM KCl, 137 mM NaCl) to a concentration of 1 mg/ml, hydrated for 2 h at 45–55°C, and finally sonicated to produce small unilamellar vesicles. The suspension of small unilamellar vesicles was then kept at 45°C for use on the same day. The sizes of proteoliposomes and liposomes were determined by dynamic light scattering using Nicomp 380 Z3000 instrument (Parficle Sizing Systems, America).
SPR analyses were performed at 25°C with a Biacore T200 instrument. For proteoliposomes and liposomes (reference), they were immobilized on a series S L1 sensor chips. It is possible that the repeated regeneration steps in the multicycle kinetics process impairs the activity of TSPO proteoliposomes, thus we were unable to use multicycle kinetics to effectively determine the affinity of TSPO and its ligands. Therefore, the single cycle kinetics, which assumes to be as robust as the classical multicycle kinetics for measuring affinity, was used. Kinetic rate constants for the various analytes were determined using single cycle protocols where five serial 2-fold dilutions of the analytes were injected for 180 s without intervening regeneration, followed by a 300 s dissociation phase after the last injection. Interactions were measured at 30 μl/min. PBS, with addition of 1% DMSO (pH 7.4), was used as running buffer. […] For mouse TSPO in a lipid-free environment, affinity was measured according to established methods with minor modifications ([Zhang et al., 2015]). […]

rat model of CCI = test: Chronic constriction injury (CCI) model, MWT; assay type: in vivo
Description: (§1) The rat CCI model of neuropathic pain was produced according to the method described by Bennett and Xie ([Bennett and Xie, 1988]). Adult male SD rats were anesthetized by isoflurane delivered by using the anesthetic machine. The right common sciatic nerve was isolated at the mid-thigh level and loosely ligated using four chromic gut (4–0) ties separated by intervals of 1 mm. For sham surgeries, the right sciatic nerve was exposed using the same procedure, but the nerve was not ligated. On the 9th day after surgery, Ro5-4864 or vehicle (5% DMSO) was administered i. p. 50 min before the measurement of mechanical allodynia, and koumine was administered s. c. 60 min before the measurement of mechanical allodynia. To determine whether koumine potentiated the analgesic effects of Ro5-4864, koumine (0.28 mg/kg, s. c.) or vehicle was injected 10 min before Ro5-4864 (0.0625–1.0 mg/kg, i. p.) injection on day 9 after CCI surgery, and the MWT was determined 50 min after the last injection. Animals were randomized for treatment and behavioral test were performed in a blinded manner. Mechanical allodynia was measured using the procedures described below. Only rats with mechanical withdrawal threshold scores (calculated by CCI ipsilateral paw mechanical withdrawal threshold/contralateral paw mechanical withdrawal threshold) on day 8 after CCI surgery >0.75 were used in the study.
(§2) Mechanical allodynia was measured using a commercially available electronic von Frey apparatus (Model 2,390; IITC Life Science Inc., Woodland Hills, CA) as described by Mitrirattanakul ([Mitrirattanakul et al., 2006]) with minor modifications. Rats were placed in a Plexiglas box on a steel mesh floor, and analyses were performed using an electronic von Frey apparatus. Stimulation was applied to the center of the hind paw in an upward motion of the von Frey filament until foot withdrawal occurred, and the withdrawal threshold was automatically recorded. The maximum strength of the filament used for von Frey testing was 55 g. The procedure was repeated three times at approximately 5 min intervals for each hind paw, and the MWT was calculated as the mean of the three latencies.

[2] = tested on: naïve and CCI sham-operated rats; test: MWT in naïve and CCI sham-operated rats; assay type: in vivo, rat; conditions: for MWT: given alone
Description: as §1, with “Animals were randomized for treatment and behavioral test were performed in a blinded manner.” left out
as §2, with “Rats were placed in a Plexiglas box on a steel mesh floor, and analyses were performed using an electronic von Frey apparatus.” left out, “The maximum strength of the filament used for von Frey testing was 55 g.” left out
Figure S5 Modulation of the in vivo efficacy of Ro5-4864 by koumine in the naïve and CCI sham rat model. […] Koumine (0.28 mg/kg) was injected s.c. 9 days after CCI sham surgery, the MWT was determined 60 min after koumine injection. […]

SMILES	Kd [1] [nM]	modulation of Ro5-4864-mediated antinociceptive activity (MWT) (rat model of CCI; 0.28 mg/kg koumine s.c. 10 min before 0.0625–0.5 mg/kg Ro5-4864 i.p., day 9)	notable antinociceptive effect on CCI-induced mechanical allodynia (MWT) (rat model of CCI; koumine alone 0.28 mg/kg s.c., day 9)	CCI-induced mechanical allodynia (MWT) (rat model of CCI; koumine alone 1.4 and 7.0 mg/kg s.c., day 9)	MWT [2]	modulation of antinociceptive effect of Ro5-4864 (MWT) ([2]; koumine 0.28 mg/kg s.c. before Ro5-4864 i.p.)	Kd ([1]; SPR single-cycle kinetics, TSPO proteoliposomes on L1 chip, 25°C, Langmuir 1:1 fit, read-out: KD) [nM]	CCI-induced mechanical allodynia (MWT) (rat model of CCI; Ro5-4864 alone 0.0625–1.0 mg/kg i.p., 9 days after surgery)
C=C[C@@]12CN(C)[C@H]3C[C@]14C(=Nc1ccccc14)[C@H]1C[C@@H]2[C@@H]3CO1 [koumine]	0.86 ± 0.07	significantly augmented	not	notable antinociceptive effects	Neither Ro5-4864 nor koumine altered the MWT	could not significantly augment		
CN1C(=O)CN=C(c2ccc(Cl)cc2)c2cc(Cl)ccc21 [Ro5-4864, reference compound]					Neither Ro5-4864 nor koumine altered the MWT		2.06 ± 0.11	inhibited CCI-induced mechanical allodynia in a dose-dependent manner
